According to PMC5543128 (Scientific Reports, 2017):
“Also recorded” adds a separate entry of the source. Where a SMILES comes first, the peptide text is derived from it. Bridges are numbered along the chain shown (N, C = ends). [ ]: non-standard residue; d: D form. Hyp = O=C(O)[C@@H]1C[C@@H](O)CN1

Legend:
[1] = test system: isolated mouse phrenic-hemidiaphragm nerve-muscle preparations; conditions: for IC50: pH 7.4
mice [2] = conditions: mouse, in vivo
hemidiaphragm muscle = test system: hemidiaphragm muscle; set-up: species or system mouse
mice [3] = conditions: mouse, in vivo, ip
[4] = target: Torpedo muscle-type nicotinic acetylcholine receptors (nAChRs) (Tetronarce californica, UniProt P02710+P02714+P02718); assay type: binding
Torpedo muscle-type nicotinic acetylcholine receptors (nAChRs), sequence (P02710 whole entry, looked up): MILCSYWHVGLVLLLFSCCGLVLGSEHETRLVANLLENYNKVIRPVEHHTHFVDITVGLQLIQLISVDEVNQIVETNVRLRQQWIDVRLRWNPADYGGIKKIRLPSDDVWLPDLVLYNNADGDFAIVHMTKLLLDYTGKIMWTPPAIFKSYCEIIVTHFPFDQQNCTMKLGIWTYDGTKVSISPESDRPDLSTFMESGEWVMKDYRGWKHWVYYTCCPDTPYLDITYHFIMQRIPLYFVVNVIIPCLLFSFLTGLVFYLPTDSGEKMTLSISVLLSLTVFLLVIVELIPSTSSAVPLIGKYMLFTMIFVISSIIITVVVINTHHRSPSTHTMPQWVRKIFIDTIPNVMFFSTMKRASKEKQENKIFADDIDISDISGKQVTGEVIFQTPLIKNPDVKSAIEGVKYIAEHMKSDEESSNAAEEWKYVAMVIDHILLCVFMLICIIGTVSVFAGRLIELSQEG
Torpedo muscle-type nicotinic acetylcholine receptors (nAChRs), sequence (P02714 whole entry, looked up): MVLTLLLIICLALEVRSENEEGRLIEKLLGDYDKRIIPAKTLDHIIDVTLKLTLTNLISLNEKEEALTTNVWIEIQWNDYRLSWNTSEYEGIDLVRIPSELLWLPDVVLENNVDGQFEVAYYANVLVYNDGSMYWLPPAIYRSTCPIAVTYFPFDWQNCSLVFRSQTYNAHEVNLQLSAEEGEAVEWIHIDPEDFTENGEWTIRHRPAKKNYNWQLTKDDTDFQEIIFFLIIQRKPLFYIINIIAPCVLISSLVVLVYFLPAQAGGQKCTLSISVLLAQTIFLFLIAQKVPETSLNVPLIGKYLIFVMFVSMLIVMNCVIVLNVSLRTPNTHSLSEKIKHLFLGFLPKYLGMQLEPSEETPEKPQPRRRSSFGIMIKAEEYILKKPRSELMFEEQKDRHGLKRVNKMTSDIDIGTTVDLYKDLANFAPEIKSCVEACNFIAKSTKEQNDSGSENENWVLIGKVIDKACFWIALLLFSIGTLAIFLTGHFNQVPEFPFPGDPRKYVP
Torpedo muscle-type nicotinic acetylcholine receptors (nAChRs), sequence (P02718 whole entry, looked up): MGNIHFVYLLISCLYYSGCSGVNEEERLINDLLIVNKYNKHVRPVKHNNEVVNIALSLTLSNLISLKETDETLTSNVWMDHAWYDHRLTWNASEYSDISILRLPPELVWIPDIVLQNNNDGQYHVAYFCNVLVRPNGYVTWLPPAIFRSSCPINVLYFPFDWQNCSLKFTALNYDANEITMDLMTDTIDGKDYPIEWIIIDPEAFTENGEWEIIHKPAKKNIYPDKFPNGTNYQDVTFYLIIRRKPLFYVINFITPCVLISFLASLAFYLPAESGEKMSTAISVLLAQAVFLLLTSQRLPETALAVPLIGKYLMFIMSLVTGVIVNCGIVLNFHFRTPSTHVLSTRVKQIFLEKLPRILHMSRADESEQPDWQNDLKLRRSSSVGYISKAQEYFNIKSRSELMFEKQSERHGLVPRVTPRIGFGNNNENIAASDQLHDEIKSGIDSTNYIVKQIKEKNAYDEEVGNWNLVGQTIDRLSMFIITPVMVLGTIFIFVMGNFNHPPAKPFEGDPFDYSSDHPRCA

SMILES | maximal block of contraction [1] | potency relative to αC-conotoxin PrXA [1] | IC50 [1] [nM] | mice lethality (mice [2]) [%] | time to death (mice [2]) [min] | IC50 (mice death) (mice [2]; ip) [µg/g] | effect on contractility force under direct electrical stimulation (hemidiaphragm muscle) | D/T (dead/treated mice) (mice [3]) | inhibition of muscle contraction [1] | time to full block of muscle contraction [1] [min] | inhibition of [^125I]-α-bungarotoxin binding [4]
CC[C@H](C)[C@H](NC(=O)[C@H](Cc1ccc(O)cc1)NC(=O)[C@H](Cc1c[nH]cn1)NC(=O)[C@@H]1CSSC[C@H](NC(=O)[C@@H]2CCCN2C(=O)[C@H](CCCNC(=N)N)NC(=O)[C@H](CC(C)C)NC(=O)[C@H](CC(=O)O)NC(=O)[C@@H]2CCCN2C(=O)[C@H](CCCCN)NC(=O)CNC(=O)CN)C(=O)N[C@@H](Cc2c[nH]cn2)C(=O)N2CCC[C@H]2C(=O)N2CCC[C@H]2C(=O)N1)C(=O)N1CCC[C@H]1C(=O)N[C@@H](CCCNC(=N)N)C(=O)N1CCC[C@H]1C(=O)N[C@@H](CCCCN)C(=O)N1CCC[C@H]1C(=O)N[C@@H](CCCNC(=N)N)C(=O)O [Waglerin 1] (H-GGKPDLRPCHPPCHYIPRPKPR-OH; disulfide 9-13) | full block of contraction | twofold less potent | 58 ± 2 | – | – | – | – | – | – | – | –
CC[C@H](C)[C@H](NC(=O)[C@H](Cc1ccc(O)cc1)NC(=O)[C@H](Cc1cnc[nH]1)NC(=O)[C@@H]1CSSC[C@H](NC(=O)[C@@H]2CCCN2C(=O)[C@H](CCCNC(=N)N)NC(=O)[C@H](CC(C)C)NC(=O)[C@H](CC(=O)O)NC(=O)[C@@H]2CCCN2C(=O)[C@H](CCCCN)NC(=O)CNC(=O)CN)C(=O)N[C@@H](Cc2cnc[nH]2)C(=O)N2CCC[C@H]2C(=O)N2CCC[C@H]2C(=O)N1)C(=O)N1CCC[C@H]1C(=O)N[C@@H](CCCNC(=N)N)C(=O)N1CCC[C@H]1C(=O)N[C@@H](CCCCN)C(=O)N1CCC[C@H]1C(=O)N[C@@H](CCCNC(=N)N)C(=O)O [Waglerin 1] (H-GGKPDLRPCHPPCHYIPRPKPR-OH; disulfide 9-13) | – | – | – | 100 | ≤ 4.7 ± 0.7 | 0.7 | – | – | – | – | –
CC[C@H](C)[C@H](NC(=O)CNC(=O)[C@H](Cc1ccc(O)cc1)NC(=O)[C@@H](N)[C@@H](C)O)C(=O)N[C@@H](Cc1ccc(O)cc1)C(=O)N[C@@H](CC(=O)O)C(=O)N[C@@H](C)C(=O)N[C@@H](CCCCN)C(=O)N1CCC[C@H]1C(=O)N1C[C@H](O)C[C@H]1C(=O)N[C@@H](Cc1ccccc1)C(=O)N[C@@H](CO)C(=O)N[C@H]1CSSC[C@@H](C(=O)N[C@H](C(=O)N[C@@H](CC(C)C)C(=O)N2CCC[C@H]2C(=O)N2C[C@H](O)C[C@H]2C(=O)N[C@@H](CC(N)=O)C(=O)N[C@@H](CC(C)C)C(=O)N[C@@H](CCCNC(=N)N)C(=O)N2C[C@H](O)C[C@H]2C(=O)N[C@@H](CCCCN)C(=O)N[C@@H](Cc2ccccc2)C(=O)N[C@@H](CCCCN)C(=O)N[C@@H](CCC(=O)O)C(N)=O)C(C)C)NC(=O)CNC(=O)CNC(=O)[C@H](CCCNC(=N)N)NC(=O)[C@H](CC(C)C)NC(=O)CNC(=O)[C@H](C)NC1=O [αC-conotoxin PrXA] (H-TYGIYDAKP[Hyp]FSCAGLRGGCVLP[Hyp]NLR[Hyp]KFKE-NH2; disulfide 13-20) | – | – | 23 ± 2 | – | – | – | did not alter muscle contractility force; also recorded: Lack of toxin effect on direct muscle stimulation | 3/3 | concentration- and time-dependent inhibition of muscle contraction | 15 | fully inhibited
